Laboratory results: patent US10927078B2, “Modulators of indoleamine 2,3-dioxygenase” (GLAXOSMITHKLINE INTELLECTUAL PROPERTY DEVELOPMENT LIMITED, priority 2017, dated 2021)
Read-outs that look alike come from different tables or passages of the source.

Experiments:
[1] = target: indoleamine 2, 3-dioxygenase (IDO1) (Homo sapiens, UniProt P14902); test: PBMC IDO1 assay (kynurenine via mass spectrometry); type: cell-based
Method in brief: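 Human PBMCs (50,000/well) stimulated with IFN-γ 100 ng/ml and LPS 50 ng/ml to induce IDO1, exposed to 11-point 3-fold compound dilutions for 2 days at 37° C. Supernatant kynurenine measured by RapidFire MS relative to internal standard; XC50 from four-parameter fit. Cytotoxicity tracked in parallel by ATP luminescence.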

[2] = tested on: conversion of T cells into CD4+FoxP3+ Tregs; conditions: co-culture of DCs and naive CD4+CD25- T cells; cited from earlier work
PAN02 pancreatic cells = conditions: orally dosed, cited from earlier work
[3] = human PBMC stimulated with IFN-γ and LPS, 2 days, kynurenine by mass spectrometry, recorded as pIC50, read-out: PBMC PXC50_ (converted)

indoleamine 2, 3-dioxygenase (IDO1), sequence (P14902 whole entry): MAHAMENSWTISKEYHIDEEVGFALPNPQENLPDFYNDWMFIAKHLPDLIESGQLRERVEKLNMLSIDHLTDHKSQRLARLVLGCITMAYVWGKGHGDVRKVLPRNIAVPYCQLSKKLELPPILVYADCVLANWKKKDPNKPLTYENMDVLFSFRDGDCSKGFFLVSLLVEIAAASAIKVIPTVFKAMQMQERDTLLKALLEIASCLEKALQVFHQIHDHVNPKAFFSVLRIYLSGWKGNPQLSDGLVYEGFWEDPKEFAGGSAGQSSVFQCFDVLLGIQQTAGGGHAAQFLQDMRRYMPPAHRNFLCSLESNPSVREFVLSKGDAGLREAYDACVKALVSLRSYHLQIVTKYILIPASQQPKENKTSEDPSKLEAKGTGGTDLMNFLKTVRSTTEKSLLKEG

Structure (SMILES) | IC50 [1, 3] [nM] | other results
O=C(N[C@@H](C1CC1)C1CCN(C(=O)Oc2ccccc2)CC1)c1ccc(Cl)s1 [Example 91, phenyl 4-[(S)-[(5-chlorothiophen-2-yl)formamido](cyclopropyl)methyl]piperidine-1-carboxylate] | 631 | –
Cc1c(F)cccc1OC(=O)N1CCC([C@H](C)NC(=O)c2ccc(Cl)s2)CC1 [Example 92, 3-fluoro-2-methylphenyl 4-[(1S)-1-[(5-chlorothiophen-2-yl)formamido]ethyl]piperidine-1-carboxylate] | 631 | –
COc1cc(OC(=O)N2CCC(C(NC(=O)c3ccc(F)cc3)c3ccncc3)CC2)ccn1 (stereo not drawn) [Example 93, 2-methoxpyridin-4-yl 4-{[(4-fluorophenyl)formamido](pyridin-4-yl)methyl}piperidine-1-carboxylate] | 794 | –
O=C(NC(c1ccncc1)C1CCN(C(=O)Oc2ccncc2)CC1)c1ccc(F)cc1 (stereo not drawn) [Example 94, pyridin-4-yl 4-{[(4-fluorophenyl)formamido](pyridin-4-yl)methyl}piperidine-1-carboxylate] | 1000 | –
C[C@H](NC(=O)c1ccc(Cl)s1)C1CCN(C(=O)Oc2ccccc2)CC1 [Example 95, phenyl 4-[(1S)-1-[(5-chlorothiophen-2-yl)formamido]ethyl]piperidine-1-carboxylate] | 1000 | –
O=C(NC(c1ccncc1)C1CCN(C(=O)Oc2ccccn2)CC1)c1ccc(F)cc1 (stereo not drawn) [Example 96, pyridin-2-yl 4-{[(4-fluorophenyl)formamido](pyridin-4-yl)methyl}piperidine-1-carboxylate] | 1260 | –
O=C(N[C@H](CCCO)C1CCN(C(=O)Oc2cccnc2F)CC1)c1ccc(F)cc1 [Example 97, 2-fluoropyridin-3-yl 4-[(1R)-1-[(4-fluorophenyl)formamido]-4-hydroxybutyl]piperidine-1-carboxylate] | – | IC50 [1]: 1260 nM
CC(C)(C)OC(=O)N1CCC(C(NC(=O)c2ccccc2)c2ccccc2)CC1 (stereo not drawn) [Example 98, tert-butyl 4-[phenyl(phenylformamido)methyl]piperidine-1-carboxylate] | 1580 | –
COc1ccc(OC(=O)N2CCC(C(NC(=O)c3ccc(F)cc3)c3ccncc3)CC2)cn1 (stereo not drawn) [Example 99, 6-methoxpyridin-3-yl 4-{[(4-fluorophenyl)formamido](pyridin-4-yl)methyl}piperidine-1-carboxylate] | – | PBMC PXC50_ ([1]; human PBMC stimulated with IFN-γ and LPS, 2 days, kynurenine by mass spectrometry, recorded as pIC50): 5.6
O=C(NC(c1ccncc1)C1CCN(C(=O)OC2CCCCC2)CC1)c1ccc(F)cc1 (stereo not drawn) [Example 100, cyclohexyl 4-{[(4-fluorophenyl)formamido](pyridin-4-yl)methyl}piperidine-1-carboxylate] | 3160 | –
Cc1c(OC(=O)N2CCC([C@@H](C)NC(=O)c3ccc(Cl)s3)CC2)ccnc1F [Example 101, 2-fluoro-3-methylpyridin-4-yl 4-[(1R)-1-[(5-chlorothiophen-2-yl)formamido]ethyl]piperidine-1-carboxylate] | 3160 | –
CC(C)(C)OC(=O)N1CCC(C(NC(=O)c2cccnc2)c2ccccc2)CC1 (stereo not drawn) [Example 102, tert-butyl 4-{phenyl[(pyridin-3-yl)formamido]methyl}piperidine-1-carboxylate] | 5010 | –
NC(=O)c1ccc(C(=O)NC(c2ccccc2)C2CCN(C(=O)Oc3ccccc3)CC2)nc1 (stereo not drawn) [Example 103, phenyl 4-{[(5-carbamoylpyridin-2-yl)formamido](phenyl)methyl}piperidine-1-carboxylate] | 10000 | –
Cc1ncccc1OC(=O)N1CCC([C@@H](CC(C)C)NC(=O)c2ccc(Cl)cc2)CC1 [Example 104, (R)-2-methylpyridin-3-yl 4-(1-(4-chlorobenzamido)-3-methylbutyl)piperidine-1-carboxylate] | – | IC50 [1]: 1.26 nM
COc1ncccc1OC(=O)N1CCC([C@@H](CC(C)C)NC(=O)c2ccc(F)cc2)CC1 [Example 105, (R)-2-methoxypyridin-3-yl 4-(1-(4-fluorobenzamido)-3-methylbutyl)piperidine-1-carboxylate] | – | IC50 [1]: 1.26 nM
COc1c(F)cccc1OC(=O)N1CCC([C@@H](CC(C)C)NC(=O)c2ccc(F)cc2)CC1 [Example 106, (R)-3-fluoro-2-methoxyphenyl 4-(1-(4-fluorobenzamido)-3-methylbutyl)piperidine-1-carboxylate] | 1.58 | –
Cc1ncnc(C)c1OC(=O)N1CCC([C@@H](CC(C)C)NC(=O)c2ccc(Cl)cc2)CC1 [Example 107, (R)-4,6-dimethylpyrimidin-5-yl 4-(1-(4-chlorobenzamido)-3-methylbutyl)piperidine-1-carboxylate] | 1.58 | –
CC(C)C[C@@H](NC(=O)c1cccc2cn[nH]c12)C1CCN(C(=O)Oc2ccccc2)CC1 [Example 109, (R)-phenyl 4-(1-(1H-indazole-7-carboxamido)-3-methylbutyl)piperidine-1-carboxylate] | 6.31 | –
CC(C)CC(NC(=O)c1cccc2cn[nH]c12)C1CCN(C(=O)Oc2ccccc2)CC1 (stereo not drawn) [Example 110, phenyl 4-(1-(1H-indazole-7-carboxamido)-3-methylbutyl)piperidine-1-carboxylate] | 12.6 | –
COc1ccc([C@@H](NC(=O)c2ccc(Cl)cc2)C2CCN(C(=O)Oc3ccccc3)CC2)cn1 [Example 111, (S)-phenyl 4-((4-chlorobenzamido)(6-methoxypyridin-3-yl)methyl)piperidine-1-carboxylate] | 63.1 | –
Cc1ncnc(C)c1OC(=O)N1CCC([C@@H](NC(=O)c2ccc(Cl)s2)C2CC2)CC1 [Example 112, (S)-4,6-dimethylpyrimidin-5-yl 4-((5-chlorothiophene-2-carboxamido)(cyclopropyl)methyl)piperidine-1-carboxylate] | 10 | –
NS(=O)(=O)NCCNc1nonc1C(=NO)Nc1ccc(F)c(Br)c1 [INCB204360] | – | conversion of T cells into CD4+FoxP3+ Tregs [2]: blocked the conversion; inhibition of tumor growth (PAN02 pancreatic cells; immunocompetent mice): significant dose-dependent inhibition of tumor growth; effect against the same tumor (PAN02 pancreatic cells; tumor implanted in immune-deficient mice): without effect
